Experimental data taken from ChEMBL document CHEMBL1806458, “The design, synthesis and structure-activity relationships of novel isoindoline-based histone deacetylase inhibitors” (Bioorg Med Chem Lett, 2011).
Values after ≈ are worked out from the molar mass of the structure shown.

Assays:
Histone deacetylase 1 = Histone deacetylase 1 (Homo sapiens, UniProt Q13547)
Description: Inhibition of purified recombinant HDAC1

HCT-116 = assay: cells; settings: Homo sapiens
Description: Antiproliferative activity against human HCT116 cells

[1] = Thermodynamic solubility of the compound at pH 6.8; assay type: physicochemical; settings: buffer; for solubility thermodynamic: read-out: Therm_solubility
[2] = Half life in rat liver microsomes; assay type: ADME, Microsome
[3] = Half life in human liver microsomes; assay type: ADME, Microsome
[4] = target: T1, Voltage-gated inwardly rectifying potassium channel KCNH2 (Homo sapiens, UniProt Q12809); assay: Inhibition of human ERG by automated patch clamp assay
T1 sequence (Q12809 whole entry): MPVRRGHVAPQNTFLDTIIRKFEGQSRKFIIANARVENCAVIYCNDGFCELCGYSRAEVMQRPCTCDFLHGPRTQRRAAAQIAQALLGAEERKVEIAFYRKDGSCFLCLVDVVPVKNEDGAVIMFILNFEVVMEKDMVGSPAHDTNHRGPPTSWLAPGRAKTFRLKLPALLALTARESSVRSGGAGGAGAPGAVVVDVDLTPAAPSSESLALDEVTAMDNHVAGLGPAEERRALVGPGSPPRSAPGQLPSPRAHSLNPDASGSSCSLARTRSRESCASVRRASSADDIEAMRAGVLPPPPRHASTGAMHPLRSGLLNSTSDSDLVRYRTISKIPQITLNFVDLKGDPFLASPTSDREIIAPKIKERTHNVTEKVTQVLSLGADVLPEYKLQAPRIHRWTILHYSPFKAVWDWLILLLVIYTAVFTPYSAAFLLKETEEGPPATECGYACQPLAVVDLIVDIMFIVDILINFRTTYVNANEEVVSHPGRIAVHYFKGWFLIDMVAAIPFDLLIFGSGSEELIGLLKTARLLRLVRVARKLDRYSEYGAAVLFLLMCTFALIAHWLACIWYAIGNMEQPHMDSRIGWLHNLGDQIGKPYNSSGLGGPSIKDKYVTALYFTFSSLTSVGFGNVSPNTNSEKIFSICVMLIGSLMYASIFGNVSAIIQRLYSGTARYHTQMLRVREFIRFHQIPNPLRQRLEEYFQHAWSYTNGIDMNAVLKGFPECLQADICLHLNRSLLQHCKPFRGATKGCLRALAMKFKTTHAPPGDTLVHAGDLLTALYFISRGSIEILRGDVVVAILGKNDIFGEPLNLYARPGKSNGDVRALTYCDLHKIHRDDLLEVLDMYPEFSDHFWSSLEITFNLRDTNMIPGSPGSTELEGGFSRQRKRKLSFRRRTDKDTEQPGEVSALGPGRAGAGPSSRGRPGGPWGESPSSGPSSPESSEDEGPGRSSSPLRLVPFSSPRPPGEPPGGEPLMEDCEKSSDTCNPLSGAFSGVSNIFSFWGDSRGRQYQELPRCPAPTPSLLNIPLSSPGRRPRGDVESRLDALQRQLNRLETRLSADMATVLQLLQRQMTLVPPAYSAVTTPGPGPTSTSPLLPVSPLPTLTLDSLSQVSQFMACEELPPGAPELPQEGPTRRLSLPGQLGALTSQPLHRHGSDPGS

hERG (KCNH2) = settings: human
Cytochrome P450 3A4 = Cytochrome P450 3A4 (Homo sapiens, UniProt P08684)
Cytochrome P450 3A4, sequence (P08684 whole entry): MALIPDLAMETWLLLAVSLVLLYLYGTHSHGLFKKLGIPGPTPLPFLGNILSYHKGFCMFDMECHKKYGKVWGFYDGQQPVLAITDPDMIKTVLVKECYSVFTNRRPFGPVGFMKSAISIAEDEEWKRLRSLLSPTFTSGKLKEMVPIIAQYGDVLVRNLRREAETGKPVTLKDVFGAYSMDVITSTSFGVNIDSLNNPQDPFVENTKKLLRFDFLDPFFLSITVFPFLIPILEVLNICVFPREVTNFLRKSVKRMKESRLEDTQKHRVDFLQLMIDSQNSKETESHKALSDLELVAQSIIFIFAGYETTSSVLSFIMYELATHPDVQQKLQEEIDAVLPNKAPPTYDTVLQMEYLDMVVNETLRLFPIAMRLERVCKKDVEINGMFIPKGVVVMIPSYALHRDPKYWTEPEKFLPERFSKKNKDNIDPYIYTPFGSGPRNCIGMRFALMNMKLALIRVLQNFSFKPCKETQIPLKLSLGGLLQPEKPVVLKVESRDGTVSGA

[5] = target: T1, Voltage-gated inwardly rectifying potassium channel KCNH2; assay: Binding affinity to human ERG by radioligand binding assay

Histone deacetylase 1, sequence (Q13547 whole entry): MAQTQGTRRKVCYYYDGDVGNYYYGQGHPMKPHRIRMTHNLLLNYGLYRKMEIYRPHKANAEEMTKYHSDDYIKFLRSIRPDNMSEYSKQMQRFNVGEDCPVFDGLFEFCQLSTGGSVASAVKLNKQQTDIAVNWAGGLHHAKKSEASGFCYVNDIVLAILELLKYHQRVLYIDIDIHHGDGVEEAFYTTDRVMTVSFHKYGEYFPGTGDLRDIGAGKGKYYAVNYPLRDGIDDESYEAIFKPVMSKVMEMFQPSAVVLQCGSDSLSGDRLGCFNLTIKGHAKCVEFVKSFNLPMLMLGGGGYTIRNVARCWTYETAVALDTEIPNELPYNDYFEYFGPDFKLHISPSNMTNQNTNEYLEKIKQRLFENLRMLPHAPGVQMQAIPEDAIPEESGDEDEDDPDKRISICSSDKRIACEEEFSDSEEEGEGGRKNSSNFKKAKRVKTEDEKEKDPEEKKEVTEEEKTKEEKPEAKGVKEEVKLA

SMILES	IC50 (Histone deacetylase 1) [nM]	IC50 (HCT-116) [nM]	solubility thermodynamic [1] [µM]	half-life [2] [min]	half-life [3] [min]	Therm_solubility [1]	IC50 [4] [nM]	selectivity ratio (hERG (KCNH2); hct-116)	IC50 (Cytochrome P450 3A4) [nM]	IC50 [5] [nM]	selectivity ratio (hERG (KCNH2); hERG assay and HCT116 cells)
O=C(/C=C/c1ccc2c(c1)CN(C(=O)c1cccc(C(F)(F)F)c1)C2)NO	200	5820	–	–	–	–	–	–	–	–	–
O=C(/C=C/c1ccc(CN(CCO)CCc2c[nH]c3ccccc23)cc1)NO [DACINOSTAT]	–	–	97 (≈ 36.8 µg/mL)	2.3	12	–	–	–	–	–	–
O=C(/C=C/c1ccc2c(c1)CN(S(=O)(=O)c1ccncc1)C2)NO	480	–	–	–	–	soluble	> 30000	–	–	–	–
Cc1noc(-c2ccccc2)c1CCN1Cc2ccc(/C=C/C(=O)NO)cc2C1	170	2200	490 (≈ 191 µg/mL)	6	17	–	–	–	–	–	–
Nc1ccccc1NC(=O)c1ccc(CNc2nccc(-c3cccnc3)n2)cc1 [MOCETINOSTAT]	–	–	33 (≈ 13.1 µg/mL)	31.3	37.8	–	–	–	–	–	–
Cc1ccccc1S(=O)(=O)N1Cc2ccc(/C=C/C(=O)NO)cc2C1	130	2230	–	–	–	soluble	–	–	–	–	–
Cn1cnc(S(=O)(=O)N2Cc3ccc(/C=C/C(=O)NO)cc3C2)c1	140	8840	–	–	–	soluble	> 30000	–	–	–	–
O=C(/C=C/c1ccc2c(c1)CN(CCC1CCCCC1)C2)NO	100	900	–	–	–	–	–	–	–	–	–
O=C(/C=C/c1ccc2c(c1)CN(S(=O)(=O)Cc1ccccc1)C2)NO	120	1120	–	–	–	soluble	> 30000	–	–	–	–
Cc1[nH]c2ccccc2c1CCN1Cc2ccc(/C=C/C(=O)NO)cc2C1	26	42	263 (≈ 95.1 µg/mL)	2	30	–	4800	114	> 10000	–	–
O=C(/C=C/c1ccc2c(c1)CN(C(=O)C1CCCC1)C2)NO	350	–	–	–	–	–	> 30000	–	–	–	–
O=C(/C=C/c1ccc2c(c1)CN(Cc1ccccc1)C2)NO	200	1040	–	29	50	–	27500	–	–	–	–
O=C(/C=C/c1ccc2c(c1)CN(S(=O)(=O)c1cccc(C(F)(F)F)c1)C2)NO	160	2050	–	–	–	soluble	> 30000	–	–	–	–
CC(C)(C)OC(=O)N1Cc2ccc(/C=C/C(=O)NO)cc2C1	520	–	99 (≈ 30.1 µg/mL)	14	131	–	> 30000	–	–	–	–
CS(=O)(=O)N1Cc2ccc(/C=C/C(=O)NO)cc2C1	630	–	–	–	–	soluble	> 30000	–	–	–	–
O=C(CCCCCCC(=O)Nc1ccccc1)NO [VORINOSTAT]	–	–	–	114	405	19 µM	–	–	–	–	–
O=C(/C=C/c1ccc2c(c1)CN(S(=O)(=O)c1ccc(C(F)(F)F)cc1)C2)NO	160	2430	–	–	–	soluble	–	–	–	–	–
O=C(/C=C/c1ccc2c(c1)CN(S(=O)(=O)C1CC1)C2)NO	790	–	–	–	–	soluble	> 30000	–	–	–	–

SMILES	IC50 (Histone deacetylase 1) [nM]	IC50 (HCT-116) [nM]	solubility thermodynamic [1] [µM]	half-life [2] [min]	half-life [3] [min]	Therm_solubility [1]	IC50 [4] [nM]	selectivity ratio (hERG (KCNH2); hct-116)	IC50 (Cytochrome P450 3A4) [nM]	IC50 [5] [nM]	selectivity ratio (hERG (KCNH2); hERG assay and HCT116 cells)
O=C(/C=C/c1ccc2c(c1)CN(CCc1c[nH]c3ccccc13)C2)NO	16	220	490 (≈ 170 µg/mL)	5	–	–	–	–	> 10000	–	–
O=C(/C=C/c1ccc2c(c1)CN(S(=O)(=O)c1cccs1)C2)NO	89	800	34 (≈ 11.9 µg/mL)	–	–	–	–	–	> 50000	–	–
O=C(/C=C/c1ccc2c(c1)CN(C(=O)c1cccnc1)C2)NO	380	–	–	–	–	soluble	> 30000	–	–	–	–
Cc1cccc(S(=O)(=O)N2Cc3ccc(/C=C/C(=O)NO)cc3C2)c1	62	1420	20 (≈ 7.17 µg/mL)	7	15	–	> 30000	–	–	–	–
COc1ccc(S(=O)(=O)N2Cc3ccc(/C=C/C(=O)NO)cc3C2)cc1	35	930	< 5	8.5	19	–	> 30000	–	> 50000	–	–
Cc1ccc(S(=O)(=O)N2Cc3ccc(/C=C/C(=O)NO)cc3C2)cc1	47	1580	20 (≈ 7.17 µg/mL)	4.1	11	–	> 30000	–	–	–	–
Cc1[nH]c2ccccc2c1CC(=O)N1Cc2ccc(/C=C/C(=O)NO)cc2C1	20	190	< 20	15	173	–	> 30000	–	–	> 30000	> 158
Nc1ccccc1NC(=O)c1ccc(CNC(=O)OCc2cccnc2)cc1 [ENTINOSTAT]	–	–	401 (≈ 151 µg/mL)	405	405	–	–	–	730	–	–
CC(C)(C)C(=O)N1Cc2ccc(/C=C/C(=O)NO)cc2C1	420	–	–	–	–	–	> 30000	–	–	–	–
O=C(/C=C/c1ccc2c(c1)CN(C(=O)C1CC1)C2)NO	420	–	–	–	–	–	> 30000	–	–	–	–
O=C(/C=C/c1ccc2c(c1)CN(C(=O)Cc1ccccc1)C2)NO	130	830	–	–	–	soluble	–	–	> 50000	–	–
O=C(/C=C/c1ccc2c(c1)CN(CCc1cnn3ccccc13)C2)NO	78	530	765 (≈ 267 µg/mL)	9	112	–	5200	7.4	> 50000	–	–
CCCCS(=O)(=O)N1Cc2ccc(/C=C/C(=O)NO)cc2C1	150	3210	–	–	–	soluble	–	–	–	–	–
O=C(/C=C/c1ccc2c(c1)CN(C(=O)C1CCCCC1)C2)NO	390	–	–	–	–	–	–	–	–	–	–
COc1cccc(S(=O)(=O)N2Cc3ccc(/C=C/C(=O)NO)cc3C2)c1	92	1130	–	–	–	soluble	> 30000	–	–	–	–
O=C(/C=C/c1ccc2c(c1)CN(S(=O)(=O)c1ccccc1)C2)NO	190	3420	–	–	–	soluble	> 30000	–	–	–	–
O=C(/C=C/c1cccc(S(=O)(=O)Nc2ccccc2)c1)NO [BELINOSTAT]	–	–	734 (≈ 234 µg/mL)	18	405	–	–	–	–	–	–
O=C(/C=C/c1ccc2c(c1)CN(S(=O)(=O)c1cccnc1)C2)NO	150	4260	–	–	–	soluble	> 30000	–	–	–	–
